This is an account of results in patent US20130023563A1, “AMIDINOANILINE DERIVATIVE” (AJINOMOTO CO., INC., priority 2010, published 2013).

Molecules are shown by their SMILES. Where a name gives a salt, the structure may show the parent alone.

Holding throughout (type): biochemical
One experiment has as its target FXa (Homo sapiens, UniProt P00742). Kind of experiment: Measurement of inhibitory activity against activated factor X (chromogenic substrate S-2222). The settings on record: 0.015 U/ml FXa, 0.2 mM S-2222, absorbance 405 nm; read-out: FXa (pIC50) (converted). How it is done:
Experimental Example 1 Measurement of Inhibitory Activity Against Activated Factor X Activity
(§1) Using a 96-well plate (#3396, Costar), 100 mM Tris-HC1 buffer (130 μL) containing 0.02% Tween 20, 0.1% PEG6000 and 0.2M NaCl was admixed with 0.015 U/ml FXa (10 μL) and a test compound (10 μL) for 10 min and a color developing substrate 0.2 mM S-2222 (50 μL) was added. Using a microplate reader Benchmark Plus (BIO-RAD), the reaction rate was measured from the time course changes at absorbance 405 nm. Using the reaction rate of the control as 100%, the negative logarithmic value of the concentration that can suppress the reaction rate of the control by 50% was taken as the pIC50 value.

The subject of a further experiment is human plasma. Kind of experiment: Anti-blood coagulant activity, aPTT method, Sysmex Cs-2000i (Experimental Example 3-2). The settings on record: negative logarithmic value of the concentration that prolongs aPTT of the control 2 times. How it is done:
Experimental Example 3-2 Measurement of Anti-Blood Coagulant Activity
An aPTT measurement method using totally automatic blood coagulation time measuring apparatus Sysmex Cs-2000i was used. A 10 mg/ml DDVP solution (DDVP standard product, Wako) (8 μL) and a test compound solution (40 μL) were placed in a sample tube (MS-18, Japan Medical Science), human plasma (standard human plasma for blood coagulation test, GCH-100A, Sysmex) (360 μL) was added and the mixture was used as a test sample. The test sample (50 μL) was incubated at 37° C. for 1 min, data fi APTT (rabbit brain-derived cephalin, DADE Behiring) (50 μL) was added, and the mixture was further incubated at 37° C. for 2 min. To the sample solution was added 0.02M calcium chloride (50 μL), and the time until plasma coagulation was automatically measured.
As the anti-blood coagulant activity, the negative logarithmic value of the concentration that prolongs aPTT of the control 2 times is shown as paPTT2.

The target of experiment [1] is activated factor IIa (thrombin) (Homo sapiens, UniProt P00734). Kind of experiment: Measurement of inhibitory activity against activated factor II (chromogenic substrate S-2238). The conditions noted are these: 0.125 U/ml thrombin, 0.1 mM S-2238, absorbance 405 nm; read-out: FIIa (pIC50) (converted). On the procedure:
Experimental Example 2 Measurement of Inhibitory Activity Against Activated Factor II (FIIa, Thrombin)
as §1, with “mM Tris-HCl” for “mM Tris-HC1”, “with 0.125” for “with 0.015”, “U/ml activated factor IIa (thrombin)” for “U/ml FXa”, “substrate 0.1” for “substrate 0.2”, “mM S-2238” for “mM S-2222”

Chain of FXa (P00742 235-488 limits assumed): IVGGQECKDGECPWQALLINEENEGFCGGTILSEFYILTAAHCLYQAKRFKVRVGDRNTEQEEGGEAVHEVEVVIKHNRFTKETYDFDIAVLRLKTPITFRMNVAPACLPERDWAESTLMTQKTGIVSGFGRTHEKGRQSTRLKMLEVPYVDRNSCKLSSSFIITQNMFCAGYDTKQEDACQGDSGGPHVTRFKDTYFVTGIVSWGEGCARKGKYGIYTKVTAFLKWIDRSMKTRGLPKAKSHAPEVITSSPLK
Chain of FXa (P00742 41-179 partner limits assumed): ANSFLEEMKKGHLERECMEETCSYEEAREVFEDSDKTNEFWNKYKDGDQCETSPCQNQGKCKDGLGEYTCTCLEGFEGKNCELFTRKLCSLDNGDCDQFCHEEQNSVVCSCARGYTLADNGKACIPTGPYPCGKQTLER

With `CC(=N)N1CCC(Oc2ccc(OC(=O)[C@H](C)N(C)c3cccc(C(=N)N)c3)cc2)CC1` [compound of Ex. 6, 4-[(1-ethanimidoylpiperidin-4-yl)oxy]phenyl N-{3-[amino(imino)methyl]phenyl}-N-methyl-L-alaninate 2 trifluoroacetate], the IC50 on FXa was 14.5 nM; in experiment [1], 33100 nM. Further, the paPTT2 in the experiment with human plasma is recorded as 6.81.

Consider `CC(=N)N1CCC(Oc2ccc(OC(=O)[C@@H](C)N(C)c3cccc(C(=N)N)c3)cc2)CC1` [compound of Ex. 7, 4-[(1-ethanimidoylpiperidin-4-yl)oxy]phenyl N-{3-[amino(imino)methyl]phenyl}-N-methyl-D-alaninate 2 trifluoroacetate], for which the IC50 was 21.4 nM at FXa and 33100 nM in experiment [1]. Further, in the experiment on human plasma, the paPTT2 was found to be 6.85.

In the case of `N=C(N)c1cccc(N2C[C@H](O)C[C@H]2C(=O)Oc2ccc(C(=N)N3CCCC3)cc2)c1` [compound of Ex. 15, 4-[imino(pyrrolidin-1-yl)methyl]phenyl (4R)-1-[(3-[amino(imino)methyl]phenyl]-4-hydroxy-L-prolinate 2 trifluoroacetate], the IC50 is 224 nM at FXa and 28200 nM in experiment [1]. The molecule further returned a paPTT2 in the experiment with human plasma of 5.68.

As for `N=C(N)c1cccc(N2CCCC[C@@H]2C(=O)Oc2ccc(C(=N)N3CCCC3)cc2Cl)c1` [compound of Ex. 20, 2-chloro-4-[imino(pyrrolidin-1-yl)methyl]phenyl (2R)-1-{3-[amino(imino)methyl]phenyl}piperidine-2-carboxylate 2 trifluoroacetate], the IC50 on FXa was 6.46 nM; in experiment [1], 1200 nM. The paPTT2 in the experiment on human plasma is listed as 6.93.

With `N=C(N)c1cccc(N2CCCC[C@@H]2C(=O)Oc2ccc(C(=N)N3CCCC3)cc2F)c1` [compound of Ex. 21, 2-fluoro-4-[imino(pyrrolidin-1-yl)methyl]phenyl (2R)-1-{3-[amino(imino)methyl]phenyl}piperidine-2-carboxylate 2 trifluoroacetate], the IC50 at FXa is 5.13 nM; in experiment [1], 1910 nM. For the same molecule, the paPTT2 with human plasma amounted to 6.94.

Consider `CC(C)[C@@H](C(=O)Oc1ccc(C(=N)N2CCCC2)cc1)N(C)c1cccc(C(=N)N)c1` [compound of Ex. 28, 4-[imino(pyrrolidin-1-yl)methyl]phenyl N-{3-[amino(imino)methyl]phenyl}-N-methyl-L-valinate 2 trifluoroacetate], for which the IC50 was 30.9 nM at FXa and 14100 nM in experiment [1]. In the experiment with human plasma, the paPTT2 came to 6.55.

As to `CC(C)C[C@@H](C(=O)Oc1ccc(C(=N)N2CCCC2)cc1)N(C)c1cccc(C(=N)N)c1` [compound of Ex. 29, 4-[imino(pyrrolidin-1-yl)methyl]phenyl N-{3-[amino(imino)methyl]phenyl}-N-methyl-L-leucinate 2 trifluoroacetate], the IC50 is 11.2 nM on FXa and 25700 nM in experiment [1]. Further, the paPTT2 in the experiment with human plasma came out at 6.72.

For `CCC(C)[C@@H](C(=O)Oc1ccc(C(=N)N2CCCC2)cc1)N(C)c1cccc(C(=N)N)c1` (stereo partly drawn) [compound of Ex. 33, 4-[imino(pyrrolidin-1-yl)methyl]phenyl N-{3-[amino(imino)methyl]phenyl}-N-methyl-L-isoleucinate 2 trifluoroacetate], the IC50 on FXa was 8.13 nM; in experiment [1], 13200 nM. Also, in the experiment on human plasma, the paPTT2 is on record as 6.80.

Regarding `CC(=N)N1CCC(Oc2ccc(OC(=O)c3cc(C(F)(F)F)nn3-c3cccc(C(=N)N)c3)cc2)CC1` [compound of Ex. 57, 4-[(1-ethanimidoylpiperidin-4-yl)oxy]phenyl 1-{3-[amino(imino)methyl]phenyl}-3-(trifluoromethyl)-1H-pyrazole-5-carboxylate 2 trifluoroacetate], the IC50 was 5.37 nM on FXa and 6920 nM in experiment [1].
